Consider 2 compounds from patent publication US20110262562A1, “AQUEOUS SALINE SOLUTIONS FOR THE DESTRUCTION OF FATTY TISSUE” (LIPOLYANE, priority 2008, published 2011).

In experiment [1] the test system is line of human adipocytes (SW872). The experiment is described as follows: LDH activity released on lysis of human adipocytes in culture. Type of experiment: cell-based. As for the experimental part: To do this, adipocytes were incubated for durations comprised between 0 and 2 hours, in aqueous saline solutions according to the invention, and for which the concentrations of poloxamers and of biliary acid […]
The efficiency of adipocyte lysis was appreciated by the measurement of the activity of a cytosolic enzyme lactico dehydrogenase (LDH), released in the culture medium and expressed as a percentage of the total lysis.
The cells were derived from a line of human adipocytes (SW872) stemming from a liposarcoma deposited at the American Cell Bank of the National Institute of Health (NIH).
The adipocytes were cultivated in the following medium: DMEM (Dubelco's modified Eagle medium) with a high glucose content (4.5 g/L) which contained pyruvate, antibiotics (penicillin/streptomycin), a supplement of amino acids and 25% of Ham-F12 medium.
It should be noted that the experiments were then conducted in the presence of 1% fetal calf serum in order to minimize basal LDH activity likely to be present in the serum.
The salts of biliary acids and/or the poloxamers were put into solution in the aforementioned culture medium under sterile conditions. Suitable diluted aqueous saline solutions were made from parent solutions at 2% for poloxamers and 3 mM for the biliary acid salt.
The adipocytes were cultivated under sterile conditions (plastic dishes, incubator with 5% CO2, 37° C.) in suitable specific media and used for less than 10 passages oso as to conduct experiments on primary cells, i.e. close to the original adipous tissues. Cell counts were carried out in Mallassez cells and the viability was appreciated by exclusion of the blue dye Trypan.
After re-suspending them under the action of trypsin, the adipocytes were incubated in sterile 96-well plates. For experiments requiring significant amounts of cells, the preliminary incubations were conducted in sterile 24-well plates, and then transferred into 96-well plates (round bottom) for centrifugation, in order to efficiently separate entire cells from lyzed cells having released their enzymatic content then again found in the supernatant. An aliquot (100 μL) of the latter was then transferred into another 96-well plate adapted to dosages (flat bottom). After addition of the mixture of corresponding reagents (kit BioChain #K6330400), LDH activity was then measured (after incubation for 40 minutes with intermittent orbital stirring) in a computerized plate reader (MR5000/Biolinx, Dynatech) at the wavelength of 490 nm corrected from absorbance at 630 nm. The results are expressed as a percentage of the total lysis carried out in the presence of detergent (1% Triton X100).

The subject of experiment [2] is adipocytes prepared from murine adipous tissues. As to the kind of experiment: LDH released into the culture medium by murine adipocytes. In kind it is cell-based. The settings on record: TDC 500 μM in 150 mOsm/L, compared with 150 mOsm/L alone (FIG. 7). As for the experimental part: Adipocytes were prepared from murine adipous tissues in the following way. Adipous tissues were sampled under aseptic conditions on anesthetized animals, and then finally cut and subjected to a dissociating enzymatic treatment with collagenase type II at 37° C. The incubation mixture was then centrifuged in order to remove the tissue debris. The adipocytes were purified by filtration under sterile conditions on a 160 μm nylon filter. After mild centrifugation, the adipocytes were washed from a phosphate buffer solution with pH 7.4 and, after counting, taken up again into a cell culture medium adapted from the type of Dubelco Modified Eagle's Medium or DMEM, and finally placed in sterile culture flasks and incubator at 37° C. adapted to the experiments. […]
Cell lysis was appreciated by the change in the number of adipocytes on the one hand and by the dosage of an intracellular enzyme released into the culture medium, lactico-dehydrogenase (abbreviated hereafter as LDH) on the other hand, expressed as a percentage with respect to the conditions for which cell lysis is complete (obtained in the presence of distilled water) and by comparison with the conditions of cell cultures.
In general terms: Release of lactate dehydrogenase indicates damage to the cell membrane.

Regarding sodium deoxycholate [DC], the “lytic activity (LDH activity)” value in experiment [1] (300 mOsm/L, 750 μM of DC, after one hour (FIG. 15 B)) was 38±5%. Moreover, in experiment [1] (300 mOsm/L, DC 0 to 750 μM, incubation of one hour), the “maximum lysis (LDH activity)” value worked out at 42±7%. In addition, the LDH activity in experiment [1] (300 mOsm/L, DC 750 μM, after 30 minutes of incubation) is on record as 26%; in experiment [1] (300 mOsm/L, DC 750 μM, after 2 hours of incubation), 37%; in experiment [1] (DC 750 μM added to hypo-osmolar (160 mOsm/L) aqueous saline solution, after one hour (FIG. 15 D or F)), about 72±8%.
On to `C[C@H](CCC(=O)NCCS(=O)(=O)[O-])[C@H]1CC[C@H]2[C@@H]3CC[C@@H]4C[C@H](O)CC[C@]4(C)[C@H]3C[C@H](O)[C@]12C.[Na+]` [TDC, sodium tauro-deoxycholate], for which the “activity of LDH in the medium” value in experiment [2] was “much more increased”.
